# Test results published in ChEMBL document CHEMBL1158107, “Oleanane and taraxerane glycosides from the roots of Gomphrena macrocephala” (J Nat Prod, 2006).
# Activity calls are given as the source filed them. No cut-off for these calls is given here.
# What was measured:
# HSC-2 [1] = assay: Cytotoxicity against human HSC2 cells at 100 uM after 24 hrs by MTT assay; type: functional, cell-based
# HSC-2 [2] = assay: Cytotoxicity against human HSC2 cells after 24 hrs by MTT assay; type: functional, cell-based; details: HSC-2, 24 h
Structure (SMILES),Activity (HSC-2 [1]),IC50 (HSC-2 [2])
CC1(C)CC[C@]2(C(=O)O[C@@H]3O[C@H](CO)[C@@H](O)[C@H](O)[C@H]3O)CC=C3[C@](C)([C@@H]2C1)[C@H]1O[C@H]1[C@@H]1[C@@]2(C)CC[C@H](O[C@@H]4O[C@H](C(=O)O)[C@@H](O)[C@H](O)[C@H]4O)C(C)(C)[C@@H]2CC[C@@]31C,inactive,–
CC1(C)CC[C@]2(C(=O)O)CC=C3[C@](C)([C@@H]2C1)[C@H]1O[C@H]1[C@@H]1[C@@]2(C)CC[C@H](O)C(C)(C)[C@@H]2CC[C@@]31C,–,21 µM
CC1(C)CC[C@@]23CC[C@]4(C)[C@@](OC2=O)([C@@H]3C1)[C@H]1O[C@H]1[C@@H]1[C@@]2(C)CC[C@H](O[C@@H]3O[C@H](C(=O)O)[C@@H](O)[C@H](O)[C@H]3O)C(C)(C)[C@@H]2CC[C@]14C,inactive,–
CC1(C)CC[C@@]23CC[C@]4(C)[C@@](OC2=O)([C@@H]3C1)[C@H]1O[C@H]1[C@@H]1[C@@]2(C)CC[C@H](O)C(C)(C)[C@@H]2CC[C@]14C,–,21 µM
COc1cc([C@@H]2c3cc4c(cc3[C@@H](O[C@@H]3O[C@@H]5CO[C@@H](C)O[C@H]5[C@H](O)[C@H]3O)[C@H]3COC(=O)[C@H]23)OCO4)cc(OC)c1O [ETOPOSIDE],–,24 µM
CC1(C)CC[C@@]23CC[C@]4(C)[C@@](OC2=O)([C@@H]3C1)[C@H]1O[C@H]1[C@@H]1[C@@]2(C)CC[C@H](O[C@@H]3O[C@H](C(=O)O)[C@@H](O)[C@H](O[C@@H]5O[C@H](CO)[C@H](O)[C@H](O)[C@H]5O)[C@H]3O[C@@H]3O[C@H](CO)[C@@H](O)[C@H](O)[C@H]3O)C(C)(C)[C@@H]2CC[C@]14C,inactive,–
